According to PubChem BioAssay AID1912 (The Scripps Research Institute Molecular Screening Center, 2009):
Calls of active or inactive are those of the source. How the calls were made is not given here.

What follows are molecules tested against Luciferin 4-monooxygenase (Photinus pyralis) (UniProt P08659) (assay: native FLuc inhibition dose response – biochemical, luminescence, artefact control for HSP90 inhibitor project (AID 1912)). Conditions: purified firefly luciferase.
Sequence of Luciferin 4-monooxygenase (Photinus pyralis) (P08659 whole entry, looked up): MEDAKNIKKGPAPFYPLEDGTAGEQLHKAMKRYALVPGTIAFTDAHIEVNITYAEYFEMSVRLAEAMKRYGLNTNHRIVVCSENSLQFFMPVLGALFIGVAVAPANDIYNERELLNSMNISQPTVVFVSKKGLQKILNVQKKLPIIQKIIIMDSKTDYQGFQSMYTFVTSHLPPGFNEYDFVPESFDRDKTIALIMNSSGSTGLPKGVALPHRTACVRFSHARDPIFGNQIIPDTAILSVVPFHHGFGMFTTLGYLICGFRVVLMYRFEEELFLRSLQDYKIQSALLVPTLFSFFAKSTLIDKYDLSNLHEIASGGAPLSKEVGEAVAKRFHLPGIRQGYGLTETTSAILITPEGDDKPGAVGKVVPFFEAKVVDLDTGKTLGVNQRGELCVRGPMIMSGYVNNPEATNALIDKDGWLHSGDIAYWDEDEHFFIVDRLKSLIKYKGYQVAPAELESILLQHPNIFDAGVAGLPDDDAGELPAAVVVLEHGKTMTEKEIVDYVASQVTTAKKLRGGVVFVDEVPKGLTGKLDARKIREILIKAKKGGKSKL

**Q.** Which IC50 does the source give for `O=C1c2cc(F)ccc2-n2c1nc1ccccc1c2=O` here?
**A.** Its IC50 is > 60 µM (inactive).

**Q.** For `COc1ccc(/C=C/c2noc(-c3ccccc3OC(C)=O)n2)cc1`, which IC50 is on record?
**A.** The IC50 was “inactive”.

**Q.** For `COCCn1c(C)cc(C(=O)Cn2nc(C(=O)O)c3ccccc3c2=O)c1C`, which IC50 is on record?
**A.** The IC50 was “inactive”.

**Q.** With `Cc1cccc(N(O)C(=O)Nc2cccc(Cl)c2)c1` as the molecule, how does the IC50 read?
**A.** The IC50 was > 60 µM (inactive).

**Q.** Which IC50 does the source give for `CC(=O)Nc1ccccc1OCC(=O)c1cc(C)n(Cc2cccs2)c1C` here?
**A.** The IC50 was > 60 µM (inactive).

**Q.** With `CC1CCN(c2ccc(-c3cccc(NC(=O)C(F)(F)F)c3)nn2)CC1` as the molecule, how does the IC50 read?
**A.** The IC50 was > 60 µM (inactive).

**Q.** Which IC50 does the source give for `CCOC(=O)C1=C(c2ccc(OC)cc2)C(=O)c2ccccc2C1=O` here?
**A.** Its IC50 is > 60 µM (inactive).

**Q.** How did the IC50 turn out when `O=C(OCc1ccccn1)c1ccc(COc2ccc3ccccc3c2)o1` was run?
**A.** The IC50 was > 60 µM (inactive).

**Q.** `CCOC(=O)C1CCCN(C(=O)c2sc3nc(-c4ccc(OC)cc4)cn3c2C)C1` (stereo not given) was tested. Which IC50 did it give?
**A.** The IC50 was > 60 µM (inactive).

**Q.** For `COc1ccccc1NC(=O)c1coc(=O)c(Br)c1`, which IC50 is on record?
**A.** The IC50 was > 60 µM (inactive).

**Q.** For `CCC(C)c1ccc(OCc2ccc(C(=O)OC)o2)cc1` (stereo not given), which IC50 is on record?
**A.** Its IC50 is > 60 µM (inactive).

**Q.** `CCOC(=O)c1csc(NC(=O)c2cc3ccccc3o2)n1` was tested. Which IC50 did it give?
**A.** Its IC50 is > 60 µM (inactive).

**Q.** For `COC(=O)c1ccc(COc2ccc3c(c2)CCC3)o1`, which IC50 is on record?
**A.** The IC50 was > 60 µM (inactive).

**Q.** Which IC50 does the source give for `O=C(CN1C(=O)c2ccccc2S1(=O)=O)c1ccc2c(c1)OCCCO2` here?
**A.** The IC50 was “inactive”.

**Q.** How did the IC50 turn out when `Cc1ccc(/C=C2/C(=O)c3ccc(C(=O)O)cc3C2=O)o1` was run?
**A.** Its IC50 is > 60 µM (inactive).

**Q.** Which IC50 does the source give for `Cc1cc(C)c(S(=O)(=O)/N=C2\C=C(Nc3ccc(C(=O)O)cc3)C(=O)c3ccccc32)c(C)c1` here?
**A.** The IC50 was > 60 µM (inactive).

**Q.** With `O=C(O)c1cccc(NC(=S)NC(NC(=O)c2cccc([N+](=O)[O-])c2)C(Cl)(Cl)Cl)c1` (stereo not given) as the molecule, how does the IC50 read?
**A.** Its IC50 is > 60 µM (inactive).

**Q.** For `Nc1c(-c2ccccc2)cnn1-c1ccc(C(=O)O)cc1`, which IC50 is on record?
**A.** Its IC50 is “inactive”.

**Q.** Which IC50 does the source give for `COC(=O)C[C@]1(C(=O)OC)CN(C#N)N(c2ccc(Cl)cc2)C12c1ccccc1-c1ccccc12` here?
**A.** The IC50 was > 60 µM (inactive).

**Q.** How did the IC50 turn out when `C=CCOc1c(CNc2cccc(C(=O)O)c2)cccc1OC` was run?
**A.** The IC50 was > 60 µM (inactive).

**Q.** With `Cc1cc(C(=O)Cn2nc(C(=O)O)c3ccccc3c2=O)c(C)n1CC(F)(F)F` as the molecule, how does the IC50 read?
**A.** The IC50 was > 60 µM (inactive).

**Q.** `O=C(O)c1cccc(-n2c(O)c(C=C3N=c4ccccc4=N3)sc2=S)c1` was tested. Which IC50 did it give?
**A.** The IC50 was > 60 µM (inactive).

**Q.** With `Cc1ccc2oc(=O)c(/C=C(\O)c3cccs3)nc2c1` as the molecule, how does the IC50 read?
**A.** The IC50 was > 60 µM (inactive).

**Q.** `CCOc1ccc(-c2nc(CN(Cc3ccccc3)C[C@@H]3CCC(=O)N3)c(C)o2)cc1` was tested. Which IC50 did it give?
**A.** The IC50 was > 60 µM (inactive).

**Q.** `CCc1ccc(S(=O)(=O)/N=C2\C=C(Nc3ccc(O)cc3)C(=O)c3ccccc32)cc1` was tested. Which IC50 did it give?
**A.** Its IC50 is > 60 µM (inactive).
